Measured values as given in patent US10526332B2, “Imidazo-pyrimidone compounds, and preparation method and application thereof” (Nanjing Gator Meditech Company, Ltd., priority 2015, dated 2020).

Key:
HCT116 = experiment: MTS cell proliferation test, HCT116; details: Homo sapiens, HCT-116, 72 h, read-out: HCT116 IC50 (Mean ± SD);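 also: absorbance at 490 nm after MTS/PMS addition, survival relative to untreated cells (100%) after blank subtraction, IC50 from the concentration–survival curve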
Method: (§1) The disclosed compounds and their pharmaceutically accepted salts are assayed for their anti-cancer activities by the following method. • MTS Cell Proliferation Test 1. Materials 1.1. […] Cell Lines
(§2) Two cell lines were used, both HCT116 and MDA-MB-231 were purchased from USATCC.
(§3) MTS reagent powder was purchased from Promega. Cat #G1111; PMS from Sigma, Cat #P8625; cell culture medium RPMI-1640, Cat #10040562R; DMEM, Cat #0013CVR; 100× sodium pyruvate solution Cat #136007; 100× Penicillin Streptomycin Solution, Cat ⊇15140122; 100× Penicillin Streptomycin Solution, Cat #15140122; 0.25% Trypsin (Parenzyme), Cat #25200-072; and fetal bovine serum, Cat #16000-044 were all purchased from Life Technologies.
(§4) • Thermo incubator (Format 371); • Heat force Biosafety Cabinet (HF sage 1500); • BioTek Microplate Reader (Synergy 2). 2. […] 2.3 Procedure of MTS Methods:
(§5) Cells at logarithmic phase were harvested, then digested with 0.25% trypsin, and re-suspense in complete growth medium. 150 uL/well of HCT-116 and MDA-MB-231 were dispensed into 96 well culture plates with 2.5×10^3 cell/well. The plates were pre-incubated in a humidified CO2 incubator at 37° C., 5% CO2) for 24 hours. 50 uL of various concentration of test compounds and reference compound were added. A negative control (only cells and culture medium without compound) and blank control (only culture medium without cells) were set at the same time. The plates were incubated for 72 hr in the incubator. The MTS/PMS solution was prepared and added into 96 well plates according to the test instruction by Promega Corporation. The plates were incubated again for some time, then the absorbance at 490 nm were measured using Biotek Instruments, Inc microplate reader and the cell survival rates calculated. Cell Survival Rate(%)=(At−Ab)/(Ac−Ab)×100% where, • At=Absorbance value of test compound • Ab=Absorbance value of blank • Ac=Absorbance value of control 3. Results

MDA-MB-231 = experiment: MTS cell proliferation test, MDA-MB-231; details: Homo sapiens, MDA-MB-231, 72 h, read-out: MDA231 IC50 (Mean ± SD);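 also: cells settled 24 h before compound addition, MTS absorbance at 490 nm, survival as percent of untreated cells after blank subtraction, IC50 fitted from survival versus concentration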
Method: as §1, §2, §3, §4, §5

SMILES	IC50 (HCT116)	IC50 (MDA-MB-231)
O=C1C2=C(CCN(Cc3ccccc3)C2)N2CCN=C2N1Cc1cccc(Cl)c1 [Compound I-1, 7-Benzyl-4-(3-chlorobenzyl)-1,2,6,7,8,9-hexahydroimidazo[1,2-a]pyrido[3,4-e]pyrimidin-5(4H)-one]	0.23 ± 0.009 µM	0.24 µM
Cc1cccc(CN2C(=O)C3=C(CCN(Cc4ccccc4)C3)N3CCN=C23)c1 [Compound I-2, 7-benzyl-4-(3-methylbenzyl)-1,2,6,7,8,9-hexahydroimidazo[1,2-a]pyrido[3,4-e]pyrimidin-5(4H)-one]	0.23 ± 0.004 µM	0.24 µM
O=C1C2=C(CCN(Cc3ccccc3)C2)N2CCN=C2N1Cc1ccc(Cl)cc1 [Compound I-3, 7-benzyl-4-(4-chlorobenzyl)-1,2,6,7,8,9-hexahydroimidazo[1,2-a]pyrido[3,4-e]pyrimidin-5(4H)-one]	0.06 ± 0.006 µM	0.07 ± 0.003 µM
O=C1C2=C(CCN(Cc3ccccc3)C2)N2CCN=C2N1Cc1ccccc1C(F)(F)F [Compound I-4, 7-benzyl-4-(2-(trifluoromethyl)benzyl)-1,2,6,7,8,9-hexahydroimidazo[1,2-a]pyrido[3,4-e]pyrimidin-5(4H)-one]	1.36 ± 0.023 µM	1.17 ± 0.178 µM
O=C1C2=C(CCN(Cc3ccccc3)C2)N2CCN=C2N1Cc1ccccc1Br [Compound I-5, 7-benzyl-4-(2-bromobenzyl)-1,2,6,7,8,9-hexahydroimidazo[1,2-a]pyrido[3,4-e]pyrimidin-5(4H)-one]	5.96 ± 1.35 µM	6.81 ± 0.057 µM
Cc1ccccc1CN1C(=O)C2=C(CCN(Cc3ccc(C(F)(F)F)cc3)C2)N2CCN=C12 [Compound I-6, 4-(2-methylbenzyl)-7-(4-(trifluoromethyl)benzyl)-1,2,6,7,8,9-hexahydroimidazo[1,2-a]pyrido[3,4-e]pyrimidin-5(4H)-one]	4.16 ± 1.51 µM	4.45 ± 0.356 µM
COc1ccc(CN2CCC3=C(C2)C(=O)N(Cc2ccccc2C)C2=NCCN23)cc1 [Compound I-7, 7-(4-methoxybenzyl)-4-(2-methylbenzyl)-1,2,6,7,8,9-hexahydroimidazo[1,2-a]pyrido[3,4-e]pyrimidin-5(4H)-one]	2.09 ± 0.092 µM	1.88 ± 0.078 µM
Cc1ccccc1CN1C(=O)C2=C(CCN(Cc3ccc(N4CCOCC4)cc3)C2)N2CCN=C12 [Compound I-8, 4-(2-methylbenzyl)-7-(4-morpholinobenzyl)-1,2,6,7,8,9-hexahydroimidazo[1,2-a]pyrido[3,4-e]pyrimidin-5(4H)-one]	1.77 ± 0.23 µM	1.82 ± 0.241 µM
Cc1ccccc1CN1C(=O)C2=C(CCN(Cc3cccc(C(F)(F)F)c3)C2)N2CCN=C12 [Compound I-9, 4-(2-methylbenzyl)-7-(3-(trifluoromethyl)benzyl)-1,2,6,7,8,9-hexahydroimidazo[1,2-a]pyrido[3,4-e]pyrimidin-5(4H)-one]	0.71 ± 0.001 µM	0.74 µM
Cc1ccccc1CN1C(=O)C2=C(CCN(Cc3ccc(N4CCN(C)CC4)cc3)C2)N2CCN=C12 [Compound I-10, 4-(2-methylbenzyl)-7-(4-(4-methylpiperazin-1-yl)benzyl)-1,2,6,7,8,9-hexahydroimidazo[1,2-a]pyrido[3,4-e]pyrimidin-5(4H)-one]	2.09 ± 0.016 µM	2.19 ± 0.027 µM
O=C1C2=C(CCN(Cc3ccccc3F)C2)N2CCN=C2N1Cc1ccccc1F [Compound I-11, 4,7-bis(2-fluorobenzyl)-1,2,6,7,8,9-hexahydroimidazo[1,2-a]pyrido[3,4-e]pyrimidin-5(4H)-one]	1.99 ± 0.041 µM	2.18 ± 0.02 µM
O=C1C2=C(CCN(Cc3ccccc3F)C2)N2CCN=C2N1Cc1ccccc1C(F)(F)F [Compound I-12, 7-(2-fluorobenzyl)-4-(2-(trifluoromethyl)benzyl)-1,2,6,7,8,9-hexahydroimidazo[1,2-a]pyrido[3,4-e]pyrimidin-5(4H)-one]	2.04 ± 0.029 µM	2.07 ± 0.001 µM
O=C1C2=C(CCN(Cc3ccccc3F)C2)N2CCN=C2N1Cc1ccccc1Cl [Compound I-13, 4-(2-chlorobenzyl)-7-(2-fluorobenzyl)-1,2,6,7,8,9-hexahydroimidazo[1,2-a]pyrido[3,4-e]pyrimidin-5(4H)-one]	1.77 ± 0.072 µM	1.94 ± 0.277 µM
O=C1C2=C(CCN(Cc3ccccc3F)C2)N2CCN=C2N1Cc1ccccc1Br [Compound I-14, 4-(2-bromobenzyl)-7-(2-fluorobenzyl)-1,2,6,7,8,9-hexahydroimidazo[1,2-a]pyrido[3,4-e]pyrimidin-5(4H)-one]	1.45 ± 0.155 µM	2.08 ± 0.024 µM
Cc1ccccc1CN1C(=O)C2=C(CCN(Cc3ccccc3F)C2)N2CCN=C12 [Compound I-15, 7-(2-fluorobenzyl)-4-(2-methylbenzyl)-1,2,6,7,8,9-hexahydroimidazo[1,2-a]pyrido[3,4-e]pyrimidin-5(4H)-one]	0.68 ± 0.003 µM	0.73 ± 0.004 µM
O=C1C2=C(CCN(Cc3ccccc3Br)C2)N2CCN=C2N1Cc1ccccc1F [Compound I-16, 7-(2-bromobenzyl)-4-(2-fluorobenzyl)-1,2,6,7,8,9-hexahydroimidazo[1,2-a]pyrido[3,4-e]pyrimidin-5(4H)-one]	2.16 ± 0.013 µM	3.07 ± 0.752 µM
O=C1C2=C(CCN(Cc3ccccc3Br)C2)N2CCN=C2N1Cc1ccccc1C(F)(F)F [Compound I-17, 7-(2-bromobenzyl)-4-(2-(trifluoromethyl)benzyl)-1,2,6,7,8,9-hexahydroimidazo[1,2-a]pyrido[3,4-e]pyrimidin-5(4H)-one]	2.02 ± 0.022 µM	2.14 ± 0.031 µM
O=C1C2=C(CCN(Cc3ccccc3Br)C2)N2CCN=C2N1Cc1ccccc1Cl [Compound I-18, 7-(2-bromobenzyl)-4-(2-chlorobenzyl)-1,2,6,7,8,9-hexahydroimidazo[1,2-a]pyrido[3,4-e]pyrimidin-5(4H)-one]	2.15 ± 0.022 µM	–
O=C1C2=C(CCN(Cc3ccccc3Br)C2)N2CCN=C2N1Cc1ccccc1Br [Compound I-19, 4,7-bis(2-bromobenzyl)-1,2,6,7,8,9-hexahydroimidazo[1,2-a]pyrido[3,4-e]pyrimidin-5(4H)-one]	2.22 ± 0.007 µM	3.67 ± 0.036 µM
Cc1ccccc1CN1C(=O)C2=C(CCN(Cc3ccccc3Br)C2)N2CCN=C12 [Compound I-20, 7-(2-bromobenzyl)-4-(2-methylbenzyl)-1,2,6,7,8,9-hexahydroimidazo[1,2-a]pyrido[3,4-e]pyrimidin-5(4H)-one]	27.5 ± 3.35 µM	27.1 ± 3.24 µM
Cc1ccccc1CN1CCC2=C(C1)C(=O)N(Cc1ccccc1F)C1=NCCN12 [Compound I-21, 4-(2-fluorobenzyl)-7-(2-methylbenzyl)-1,2,6,7,8,9-hexahydroimidazo[1,2-a]pyrido[3,4-e]pyrimidin-5(4H)-one]	2.12 ± 0.039 µM	2.15 ± 0.034 µM
Cc1ccccc1CN1CCC2=C(C1)C(=O)N(Cc1ccccc1C(F)(F)F)C1=NCCN12 [Compound I-22, 7-(2-methylbenzyl)-4-(2-(trifluoromethyl)benzyl)-1,2,6,7,8,9-hexahydroimidazo[1,2-a]pyrido[3,4-e]pyrimidin-5(4H)-one]	2.03 ± 0.009 µM	2.13 ± 0.008 µM
O=C1C2=C(CCN(Cc3ccccc3Cl)C2)N2CCN=C2N1Cc1ccccc1F [Compound I-23, 7-(2-chlorobenzyl)-4-(2-fluorobenzyl)-1,2,6,7,8,9-hexahydroimidazo[1,2-a]pyrido[3,4-e]pyrimidin-5(4H)-one]	2 ± 0.026 µM	2.14 ± 0.025 µM
